Our source for the EC50 and Emax values is patent publication US20250263404A1, “AMINOPYRIDINES AS ACTIVATORS OF PI3 KINASE” (UCL Business Ltd, priority 2021, published 2025).

Each structure is given as a SMILES string.

This assay addresses PI3Kα (Homo sapiens, UniProt P42336). Nature of the assay: pAKT S473 ELISA in A549 cells (PI3Kα activation). It counts as cell-based. More on the design: endogenous in cells; host or cells: A549. The conditions noted are these: for EC50: A549 cells, 15 min treatment, pAKT S473 ELISA, normalised to Emax of 1 μM insulin, read-out: Av EC50; for Emax at 10 µM: A549, 0.25 h, read-out: <50% response at 10 μM. Here is the method: EC50 values were determined by quantifying phosphorylation on S473 residues of Akt in A549 human adenocarcinoma cells by ELISA (enzyme linked immunoadsorbent assay, R&D Systems, DYC887BE). A549 cells were seeded into 96-well plates (50,000 cells/well) in DMEM supplemented with 10% foetal bovine serum and 1% penicillin-streptomyocin. Following 24 h in culture cells were starved for 24 h in serum-free DMEM before 15 minute treatment with a concentration response curve of compounds. Experimental compounds were diluted in DMSO into […] 1:3 concentration response curves in polypropylene V-bottom plates (SLS MIC9050). Concentration response curves were diluted to a 3× stock in serum-free DMEM. Standard 8-point concentration response curves were performed at 50, 16.7, 5.6, 1.9, 0.6, 0.2, 0.07, 0.02 μM and serum-free DMEM containing 0.5% DMSO was used as a negative control. […] A549 cells were seeded at 50,000 cells per well in 96-well plates in DMEM (10% FBS+1% P/S). The next day cells were washed once with PBS before addition of serum-free DMEM for 24 h. On the day of treatment cells, were incubated in fresh serum-free DMEM prior to treatment. Compounds solubilised to 10 mM in DMSO were diluted 1:3 in an 8-point concentration response curve in DMSO. Concentration response curves were diluted in serum-free DMEM by transfer into intermediate plates using a BRAVO liquid handler (Agilent). Intermediate plates were then used to treat cell plates using the BRAVO liquid handler. Compound concentration response curves had atop concentration of 50 μM and a final well concentration of 0.5% DMSO. Cell plates were treated for 15 min at 37° C., 5% CO2 before being washed with ice-cold PBS and lysed in lysis buffer 6 (R&D Systems #895561) and freezing at −80° C. Levels of pAKT-S473 were determined using the phospho-AKT (S473) pan-specific Duoset IC ELISA (R&D Systems #DYC887BE) in 96-well white high-binding plates (Corning #3922) according to manufacturer's instructions. Endpoint luminescence was measured using a Sense (Hidex) platereader. […] Data were transformed and EC50 data were determined by variable slope (4 parameters) non-linear regression using Prism 7 (Graphpad).

Chain of PI3Kα (P42336 whole entry): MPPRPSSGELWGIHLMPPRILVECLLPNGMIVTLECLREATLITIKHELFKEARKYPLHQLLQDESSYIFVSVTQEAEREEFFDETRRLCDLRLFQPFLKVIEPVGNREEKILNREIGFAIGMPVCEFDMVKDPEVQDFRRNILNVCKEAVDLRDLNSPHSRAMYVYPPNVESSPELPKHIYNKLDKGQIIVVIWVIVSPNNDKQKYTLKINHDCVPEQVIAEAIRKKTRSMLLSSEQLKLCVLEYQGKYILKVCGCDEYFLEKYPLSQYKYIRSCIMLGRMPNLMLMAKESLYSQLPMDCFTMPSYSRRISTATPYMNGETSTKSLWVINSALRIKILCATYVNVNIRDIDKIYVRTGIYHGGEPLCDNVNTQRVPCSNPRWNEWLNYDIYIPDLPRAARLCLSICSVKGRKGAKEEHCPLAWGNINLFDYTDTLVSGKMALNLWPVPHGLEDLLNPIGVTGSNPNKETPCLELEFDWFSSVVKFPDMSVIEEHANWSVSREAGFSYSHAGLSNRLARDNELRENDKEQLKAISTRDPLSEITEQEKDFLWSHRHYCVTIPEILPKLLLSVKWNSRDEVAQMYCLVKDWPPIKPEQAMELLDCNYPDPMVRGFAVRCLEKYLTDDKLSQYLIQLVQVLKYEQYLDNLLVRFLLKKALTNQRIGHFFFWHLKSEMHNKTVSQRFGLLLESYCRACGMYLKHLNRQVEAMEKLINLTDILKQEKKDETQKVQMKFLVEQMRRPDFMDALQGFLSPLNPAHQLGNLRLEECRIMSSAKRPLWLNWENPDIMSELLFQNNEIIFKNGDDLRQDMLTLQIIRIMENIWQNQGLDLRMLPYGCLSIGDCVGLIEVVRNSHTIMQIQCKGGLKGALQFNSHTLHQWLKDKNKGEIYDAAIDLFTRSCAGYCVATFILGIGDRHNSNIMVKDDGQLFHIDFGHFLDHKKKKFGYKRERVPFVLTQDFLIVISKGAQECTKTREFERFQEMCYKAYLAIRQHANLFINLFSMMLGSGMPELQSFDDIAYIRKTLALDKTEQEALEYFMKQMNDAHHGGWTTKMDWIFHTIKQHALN
Chain of PI3Kα (P27986 whole entry partner): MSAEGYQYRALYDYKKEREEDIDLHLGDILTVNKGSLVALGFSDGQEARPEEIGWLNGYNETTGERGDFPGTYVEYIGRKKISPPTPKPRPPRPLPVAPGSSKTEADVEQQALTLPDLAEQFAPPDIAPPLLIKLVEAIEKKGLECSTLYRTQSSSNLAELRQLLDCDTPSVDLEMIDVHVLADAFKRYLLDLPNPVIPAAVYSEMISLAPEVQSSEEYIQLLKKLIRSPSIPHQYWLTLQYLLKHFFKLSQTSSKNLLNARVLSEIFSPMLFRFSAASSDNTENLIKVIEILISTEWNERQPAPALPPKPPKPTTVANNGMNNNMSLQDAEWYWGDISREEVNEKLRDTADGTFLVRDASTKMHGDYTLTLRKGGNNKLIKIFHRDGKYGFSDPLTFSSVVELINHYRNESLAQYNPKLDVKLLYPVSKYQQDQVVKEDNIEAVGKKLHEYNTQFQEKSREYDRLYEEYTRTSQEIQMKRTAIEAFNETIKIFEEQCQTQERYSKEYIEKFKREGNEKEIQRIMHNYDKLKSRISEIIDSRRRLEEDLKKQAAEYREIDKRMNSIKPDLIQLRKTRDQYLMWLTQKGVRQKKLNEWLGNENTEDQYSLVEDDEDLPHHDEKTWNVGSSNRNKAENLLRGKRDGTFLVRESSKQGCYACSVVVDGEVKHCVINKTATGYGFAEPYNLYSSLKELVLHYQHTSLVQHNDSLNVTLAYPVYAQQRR

In the case of `CNC(=O)c1ccc(Nc2ccnc(Nc3ccc(N4CCN(C)CC4)cc3OC)c2)cc1` [61 (2055)], the EC50 was found to be 2.61 µM.

For `COc1cc(N2CCN(C)CC2)ccc1Nc1cc(Nc2cccc3nccnc23)ccn1` [62 (2056)], the Emax at 10 µM is less than 50% and the EC50 stood at 1.29 µM.

On to `COc1cc(N2CCN(C)CC2)ccc1Nc1cc(Nc2cccc3[nH]ccc23)ccn1` [63 (2057)], for which the Emax at 10 µM is less than 50% and the EC50 is more than 50 µM.

Turning to `COc1cc(N2CCN(C)CC2)ccc1Nc1cc(Nc2cccnc2)ccn1` [64 (2061)], the EC50 was 1.58 µM.

On to `COc1cc(N2CCN(C)CC2)ccc1Nc1cc(Nc2cccc(-n3ccnc3)c2)ccn1` [65 (2063)], for which the EC50 is 1.53 µM.

As for `COc1cc(N2CCN(C)CC2)ccc1Nc1cc(Nc2cccc(-n3cnnc3)c2)ccn1` [66 (2064)], the concentration for a half-maximal effect (EC50) was found to be 17.3 µM.

Take `COc1cc(N2CCN(C)CC2)ccc1Nc1cc(Nc2ncccc2C#N)ccn1` [67 (2066)]: the Emax at 10 µM is less than 50% and the EC50 was more than 50 µM.

For the compound `CC(=O)N1CCc2cccc(Nc3ccnc(Nc4cccc5ncccc45)c3)c21` [68 (2067)], the EC50 was 4 µM.

In the case of `C#Cc1cccc(Nc2cc(Nc3cccc4c3N(C(C)=O)CC4)ccn2)c1` [69 (2069)], the EC50 is more than 50 µM.

For the compound `CC(=O)N1CCc2cccc(Nc3ccnc(Nc4cc(C(C)C)nn4C)c3)c21` [70 (2070)], the Emax at 10 µM was less than 50% and the EC50 came to 0.39 µM.

Turning to `CC(=O)N1CCc2cccc(Nc3ccnc(Nc4cccc5ccncc45)c3)c21` [71 (2071)], the Emax at 10 µM was less than 50% and the EC50 worked out at 6.54 µM.

In the case of `CC(=O)N1CCc2cc(Nc3cc(Nc4cccc5c4N(C(C)=O)CC5)ccn3)ccc21` [72 (2072)], the 50% effective concentration (EC50) is 1.08 µM.

Take `CC(=O)N1CCc2ccc(Nc3cc(Nc4cccc5c4N(C(C)=O)CC5)ccn3)cc21` [73 (2073)]: the Emax at 10 µM was less than 50% and the EC50 was determined as 0.5 µM.

`CC(=O)N1CCc2cccc(Nc3ccnc(Nc4ccc(-c5ccccc5)cn4)c3)c21` [74 (2079)]: the EC50 is more than 50 µM.

Consider `CC(=O)N1CCc2cccc(Nc3ccnc(Nc4ccc(C(=O)N(C)C)cc4)c3)c21` [75 (2101)], for which the Emax at 10 µM was less than 50% and the EC50 was more than 19 µM.

Turning to `CCN1CCN(c2ccc(Nc3cc(Nc4cc(C(C)(C)C)nn4C)ccn3)cc2)CC1` [76 (2102)], the EC50 was 2.2 µM.

As to `CCN1CCN(c2ccc(Nc3cc(Nc4cc(C(C)C)nn4C)ccn3)cc2)CC1` [77 (2103)], the EC50 worked out at 2.09 µM.

Turning to `CCN1CCN(c2ccc(Nc3cc(Nc4cccc(C(=O)NC)c4)ccn3)cc2)CC1` [78 (2104)], the EC50 stood at 1.98 µM.

On to `CCN1CCN(c2ccc(Nc3cc(Nc4ccc(C(=O)NC)cc4)ccn3)cc2)CC1` [79 (2105)], for which the EC50 amounted to 8.31 µM.

For the compound `CCN1CCN(c2ccc(Nc3cc(Nc4ccncn4)ccn3)cc2)CC1` [80 (2106)], the EC50 is not below 50 µM.

For `CCN1CCN(c2ccc(Nc3cc(Nc4cccc(-n5ccnc5)c4)ccn3)cc2)CC1` [81 (2107)], the EC50 is 5.33 µM.

For the compound `CCN1CCN(c2ccc(Nc3cc(Nc4cccc(S(C)(=O)=O)c4)ccn3)cc2)CC1` [82 (2108)], the EC50 came to 1.52 µM.

As for `CC(=O)N1CCc2cc(Nc3cc(Nc4cc(C(C)(C)C)nn4C)ccn3)ccc21` [83 (2109)], the Emax at 10 µM was less than 50% and the EC50 came to 2.78 µM.

On to `CC(=O)N1CCc2cc(Nc3cc(Nc4cc(C(C)C)nn4C)ccn3)ccc21` [85 (2110)], for which the Emax at 10 µM was less than 50% and the EC50 was more than 27.2 µM.

In the case of `CNC(=O)c1cccc(Nc2ccnc(Nc3ccc4c(c3)CCN4C(C)=O)c2)c1` [86 (2111)], the Emax at 10 µM was less than 50% and the EC50 is more than 29 µM.

Consider `CNC(=O)c1ccc(Nc2ccnc(Nc3ccc4c(c3)CCN4C(C)=O)c2)cc1` [87 (2112)], for which the Emax at 10 µM is less than 50% and the EC50 was more than 27 µM.

As to `CC(=O)N1CCc2cc(Nc3cc(Nc4cccc(S(C)(=O)=O)c4)ccn3)ccc21` [88 (2115)], the Emax at 10 µM was less than 50% and the EC50 is more than 50 µM.

`CNC(=O)c1ccc(Nc2cc(Nc3cc(C(C)(C)C)nn3C)ccn2)cc1` [89 (2116)]: the Emax at 10 µM was less than 50% and the EC50 is more than 50 µM.

Take `CNC(=O)c1ccc(Nc2cc(Nc3cc(C(C)C)nn3C)ccn2)cc1` [90 (2117)]: the Emax at 10 µM was less than 50% and the EC50 is more than 50 µM.

Take `COc1cc(C(=O)N2CCOCC2)ccc1Nc1cc(Nc2cccc3c2N(C(C)=O)CC3)ccn1` [91 (2347)]: the EC50 is 2.29 µM.

In the case of `CC(=O)N1CCc2cccc(Nc3ccnc(Nc4ccc(C(=O)N5CCOCC5)cc4)c3)c21` [92 (2348)], the EC50 is more than 10.4 µM.

On to `CNC(=O)c1ccc(Nc2cc(Nc3cccc4c3N(C(C)=O)CC4)ccn2)c(OC)c1` [93 (2349)], for which the EC50 worked out at 5.18 µM.

On to `CC(=O)N1CCc2cccc(Nc3ccnc(Nc4ccc(N5CCOCC5)cc4C)c3)c21` [94 (2350)], for which the EC50 is 4.56 µM.

Turning to `CC(=O)N1CCc2cccc(Nc3ccnc(Nc4ccc(N5CCN(C)CC5)cc4C)c3)c21` [95 (2351)], the EC50 was found to be 14.7 µM.

Turning to `COc1cc(N2CC3(COC3)C2)ccc1Nc1cc(Nc2cccc3c2N(C(C)=O)CC3)ccn1` [96 (2353)], the Emax at 10 µM is less than 50% and the EC50 was more than 0.505 µM.

In the case of `COc1cc(N2CCN(C3CC3)CC2)ccc1Nc1cc(Nc2cccc3c2N(C(C)=O)CC3)ccn1` [97 (2354)], the EC50 was found to be 0.97 µM.

`CC(=O)N1CCc2cccc(Nc3ccnc(Nc4ccnc5ccccc45)c3)c21` [98 (2355)]: the EC50 is more than 50 µM.

As for `CCN1CCN(c2ccc(Nc3cccc(Nc4cccc5c4N(C(C)=O)CC5)c3)cc2)CC1` [99 (2346)], the Emax at 10 µM was less than 50% and the 50% effective concentration (EC50) is more than 50 µM.

As to `COc1ccccc1Nc1cc(Nc2cccc3c2N(C(C)=O)CC3)ccn1` [99 (2356)], the Emax at 10 µM is less than 50% and the EC50 was determined as 4.78 µM.

Take `COc1cc(C#N)ccc1Nc1cc(Nc2cccc3c2N(C(C)=O)CC3)ccn1` [100 (2357)]: the EC50 was more than 50 µM.

`CC(=O)N1CCc2cccc(Nc3ccnc(Nc4cccc(NS(C)(=O)=O)c4)c3)c21` [101 (2358)]: the EC50 was more than 50 µM.

As for `CC(=O)N1CCc2cccc(Nc3ccnc(Nc4cccc(S(C)(=O)=O)c4)c3)c21` [102 (2359)], the EC50 was more than 50 µM.

As for `COc1cc(N2CCN(C)CC2)ccc1Nc1cc(-c2cccc(C(=O)N(C)C)c2)ccn1` [103 (1940)], the Emax at 10 µM is less than 50% and the EC50 is more than 50 µM.

On to `COc1ccc(S(C)(=O)=O)cc1Nc1cc(Nc2cccc3c2N(C(C)=O)CC3)ccn1` [R1 (1888)], for which the EC50 is 1.55 µM.

With `COc1cc(N2CCN(C)CC2)ccc1Nc1cc(Nc2cccc3c2N(C(C)=O)CC3)c(F)cn1` [R2 (1890)], the half-maximal effective concentration (EC50) was 1.62 µM.

For the compound `COc1cc(Nc2cc(Nc3cccc4c3N(C(C)=O)CC4)ccn2)cc(OC)c1OC` [R3 (1887)], the EC50 was determined as 1.96 µM.

For `COc1cc(N2CCN(C)CC2)ccc1Nc1cc(Nc2cccc3c2N(C(C)=O)CC3)ccn1` [R4 (1889)], the EC50 is 2.55 µM.

`CC(=O)N1CCc2cccc(Nc3ccnc(-c4cnn(C5CCNCC5)c4)c3)c21` [R5 (1962)]: the Emax at 10 µM was less than 50% and the EC50 stood at 0.59 µM.
